Measurements from paper PMC5880945, “D-Arg^0-Bradykinin-Arg-Arg, a Latent Vasoactive Bradykinin B2 Receptor Agonist Metabolically Activated by Carboxypeptidases” (Frontiers in Pharmacology, 2018).
Entries after “also recorded” stand apart in the source; their conditions may differ. Square brackets hold non-standard residues; d marks the D form. Peptide text beside a SMILES is read from it.

Experiments:
anesthetized rats = experiment: In vivo hemodynamics in anesthetized rats, dose-response; parameters: species or system male Sprague-Dawley rats; conditions: for hypotensive potency, r-BK vs r-BK-RR, in words: i.v. bolus 0.025–12.8 μg/kg; for heart rate response, in words / peptide doses giving hypotensive response significantly greater than vehicle: i.v. bolus; for heart rate response, in words: after brief bradycardic injection artifact, statistically significant only at the highest tested doses; for peptide doses giving hypotensive response significantly greater than vehicle: vs BSA-saline vehicle (Dunnett’s test)
Description: All surgical and experimental procedures were reviewed and approved by the Animal Care and Handling Committee of Laval University, in accordance with the Canadian Council on Animal Care. Experiments were performed on male Sprague-Dawley rats (300–375 g) purchased from Charles River Laboratories (St-Constant, QC, Canada). The rats were housed in a light-controlled (12:12-h light-dark cycle (lights on at 0600)) and temperature-regulated room (22 ± 1°C). Animals had free access to normal chow diet and tap water. They were allowed to acclimate to their environmental conditions for 1 week prior to being studied. At the end of the acclimation period, the rats were anesthetised with sodium pentobarbital (50 mg kg^-1, i.p., supplemented as required) and had one catheter implanted into the right jugular vein [for intravenous (i.v.) injection] and one into the left femoral artery [for direct and continuous measurement of blood pressure and heart rate as previously described ([Jean et al., 2016])]. Experiments started at least 20 min following the end of surgery in anesthetised rats.
Baseline measurements of heart rate and phasic and mean arterial blood pressure were recorded over a period of 15 min in anesthetized rats. A dose response curve was then obtained by recording changes in blood pressure and heart rate elicited by i.v. injection of peptide vehicle followed by increasing doses (0.025–12.8 μg/kg) of r-BK or r-BK-RR. Peptides were dissolved in isotonic saline (0.9% NaCl) containing 0.1% BSA to prevent the adsorption of peptide to the glassware and plastic surfaces. All i.v. injections were given as 100 μl boluses which were washed in with a further 100 μl of saline (the dead space of the catheter). Only one peptide was tested per group of rats and each injection started with saline-BSA 0.1% followed by the lowest dose of peptide. The next dose was administered once all recorded cardiovascular parameters had returned to baseline after the previous injection (usually 2–10 min). At the end of the experiments each animal was euthanized with an overdose of sodium pentobarbital (240 mg/kg, i.v.).
(§1) Results are presented as means ± SEM. Radioligand binding data were fitted by non-linear regression to a one-site competition equation using a least-square method (Prism 5.0, GraphPad Software Inc., San Diego, CA, United States) and IC50 values calculated from this procedure. The same computer program was used to draw concentration-effect curves generated with the contractility assay (least square fitting of sigmoidal dose-response equation with variable slope) and to derive contractile EC50 values. Data describing the dose-response relationship of novel peptides vs. hypotension and heart rate changes, the baseline values of heart rate and mean arterial blood pressure and the effect of drugs on the hemodynamic responses to r-B K and r-BK-RR were assessed by using one-way analysis of variance (ANOVA) followed by the Dunnett’s test (repeated comparison with a common control; Prism 5.0 software).

[1] = test system: human ACE-mCherry fusion protein; experiment: Competition of a fluorogenic ACE substrate by synthetic kinins (recombinant ACE-mCherry); format: biochemical; conditions: 15 min, 37°C
Description: The source of enzyme was whole HEK 293a cells grown in 24-well plates and transfected as described with a vector coding for the human ACE-mCherry fusion protein, an active enzyme ([Charest-Morin and Marceau, 2016]). The culture medium was removed from cell wells, which were rinsed twice with PBS. The fluorogenic substrate (final concentration 20 μM), and, optionally, a competitor (BK, r-BK, or r-BK-RR in variable concentrations, or the ACE inhibitor enalaprilat 1 μM) were added in 250 μl PBS in each well; the plates were then incubated for 15 min at 37°C. At this point, the well supernatants were transferred in Eppendorf tubes, centrifuged 30 s at 12500 rpm to remove debris and 100 μl of this fluid transferred in wells of 96-well plate (black background) to read the fluorescence (excitation 320 nm, emission 420 nm) using a TECAN Infinite® 200 PRO microplate reader. Results were expressed as the percent of the fluorescence in wells containing ACE-mCherry and the substrate without competitors. Controls included mock-transfected cells and enalaprilat-treated cells.

[2] = test system: GFP-tagged rabbit B2R (B2R-GFP); experiment: B2R-GFP endocytosis and recycling, epifluorescence microscopy, HEK 293 cells; format: cell-based; conditions: 30 min; for B2R-GFP internalization with Plummer’s inhibitor, in words: Plummer’s inhibitor alone
Description: This system, based on a serum-containing culture medium, contains ACE and Arg-carboxypeptidase activities ([Bachvarov et al., 2001]; [Charest-Morin et al., 2014]). r-BK or r-BK-RR were added to 35-mm Petri dishes containing the cells with optional pre-treatment with peptidase inhibitors and the cells were observed as described after 30 min of incubation at 37°C ([Charest-Morin et al., 2014]).

[3] = target: T1, rat myc-B2R (bradykinin B2 receptor) (Rattus norvegicus, UniProt P25023); experiment: [3H]BK binding competition assay; conditions: for affinity for rat B2R, in words: rat myc-B2R
T1 construct: expressed in transfected cells
T1 sequence (P25023 1-396): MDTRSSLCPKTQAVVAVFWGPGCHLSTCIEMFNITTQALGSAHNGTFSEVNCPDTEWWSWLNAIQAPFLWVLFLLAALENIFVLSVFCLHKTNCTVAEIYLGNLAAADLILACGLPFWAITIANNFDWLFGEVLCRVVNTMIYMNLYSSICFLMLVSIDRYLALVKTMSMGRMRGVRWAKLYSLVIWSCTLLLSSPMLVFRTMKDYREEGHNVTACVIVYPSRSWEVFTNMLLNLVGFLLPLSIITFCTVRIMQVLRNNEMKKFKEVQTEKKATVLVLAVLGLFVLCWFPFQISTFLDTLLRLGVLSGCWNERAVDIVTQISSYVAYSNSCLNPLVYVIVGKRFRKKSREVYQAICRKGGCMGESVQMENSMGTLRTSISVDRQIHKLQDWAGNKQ
Description: Affinity for the B2R was evaluated using a radioligand binding competition assay performed at 0°C in the presence of peptidase inhibitors that included captopril and PMSF ([Charest-Morin et al., 2014]). Briefly, the binding of 3 nM [^3H]bradykinin (Perkin Elmer Life Sciences; 90 Ci/mmol) to adherent intact Human Embryonic Kidney (HEK 293) cells stably expressing the myc-tagged rat B2R construction ([Charest-Morin et al., 2017]) was applied to construct binding competition curves for a series of unlabeled peptides.
as §1

[4] = test system: GFP-tagged rabbit B2R (B2R-GFP); experiment: B2R-GFP endocytosis and recycling, epifluorescence microscopy, HEK 293 cells; format: cell-based; conditions: 30 min vs 3 h of stimulation

| Structure (SMILES) | hypotensive potency, r-BK vs r-BK-RR, in words (anesthetized rats) | heart rate response, in words (anesthetized rats) | peptide doses giving hypotensive response significantly greater than vehicle (anesthetized rats) | inhibition of ACE substrate hydrolysis, in words ([1]; competitor 20 μM (equal to substrate concentration), fluorescence) | B2R-GFP internalization, in words ([2]; 100 nM, 37°C, serum-containing culture medium, no inhibitor) | B2R-GFP internalization with Plummer’s inhibitor, in words ([2]; 100 nM, 15 min before) | proportion of cells exhibiting internalization of B2R-GFP ([2]; with enalaprilat and/or Plummer’s inhibitor (not influenced by any)) | affinity for rat B2R, in words ([3]; [3H]BK binding competition) | persistence of B2R-GFP endocytosis, in words [4] | competition for recombinant ACE, relative affinity, in words ([1]; Abz-Phe-Arg-Lys(Dnp)-Pro-OH 20 μM, HEK 293a cells with ACE-mCherry, PBS, fluorescence ex 320 / em 420 nm) | B2R-GFP internalization with enalaprilat + Plummer’s inhibitor, in words ([2]; 100 nM, both inhibitors 15 min before) | B2R-GFP internalization with enalaprilat, in words ([2]; 100 nM, enalaprilat alone, 15 min before) | competition on the binding of [3H]BK to B2R, in words ([3]; 100 nM) | decrease of receptor affinity (less potent) ([3]; r-BK-RR, [3H]BK binding competition, rat B2R) |
| --- | --- | --- | --- | --- | --- | --- | --- | --- | --- | --- | --- | --- | --- | --- |
| N=C(N)NCCC[C@@H](N)C(=O)N[C@@H](CCCNC(=N)N)C(=O)N1CCC[C@H]1C(=O)N1CCC[C@H]1C(=O)NCC(=O)N[C@@H](Cc1ccccc1)C(=O)N[C@@H](CO)C(=O)N1CCC[C@H]1C(=O)N[C@@H](Cc1ccccc1)C(=O)N[C@@H](CCCNC(=N)N)C(=O)O [r-BK, D-Arg^0-BK] (H-[dR]RPPGFSPFR-OH) | virtually equipotent hypotensive agents | brief tachycardic response, statistically significant only at the highest tested doses | ≥ 0.4 µg/kg | nearly complete inhibition | the fluorescent receptor was internalized | no effect | > 90% | practically equal to that of BK | reversible as a function of incubation time, as that of BK; also recorded: not more persistent |  |  |  |  |  |
| N=C(N)NCCC[C@@H](N)C(=O)N[C@@H](CCCNC(=N)N)C(=O)N1CCC[C@H]1C(=O)N1CCC[C@H]1C(=O)NCC(=O)N[C@@H](Cc1ccccc1)C(=O)N[C@@H](CO)C(=O)N1CCC[C@H]1C(=O)N[C@@H](Cc1ccccc1)C(=O)N[C@@H](CCCNC(=N)N)C(=O)N[C@@H](CCCNC(=N)N)C(=O)N[C@@H](CCCNC(=N)N)C(=O)O [r-BK-RR, D-Arg^0-BK-Arg-Arg] (H-[dR]RPPGFSPFRRR-OH) | virtually equipotent hypotensive agents | brief tachycardic response, statistically significant only at the highest tested doses | ≥ 0.4 µg/kg |  |  | only a partial effect |  | direct micromolar affinity; also recorded: very little direct affinity for B2R |  | only slightly less potent than the two other peptides | suppress the effect of r-BK-RR | suppress the effect of r-BK-RR | little competition | 61 fold |
